Data reported in ChEMBL document CHEMBL3351376, “Design, synthesis, and structure-activity relationship of novel opioid κ receptor selective agonists: α-iminoamide derivatives with an azabicyclo[2.2.2]octene skeleton” (Bioorg Med Chem Lett, 2014).

Columns and labels:
[1] = target: Delta-type opioid receptor (Mus musculus, UniProt P32300); assay: Displacement of [3H]DPDPE from delta opioid receptor in mouse brain membranes without cerebellum; assay type: cell membranes, Membrane
[2] = Selectivity ratio of Ki for mu opioid receptor in mouse brain membranes without cerebellum to Ki for kappa opioid receptor in guinea pig cerebellum; assay type: cell membranes
[3] = target: Kappa-type opioid receptor (Cavia porcellus, UniProt P41144); assay: Displacement of [3H]U-69593 from kappa opioid receptor in guinea pig cerebellum
Sequence of Kappa-type opioid receptor (Cavia porcellus, UniProt P41144) (P41144 whole entry): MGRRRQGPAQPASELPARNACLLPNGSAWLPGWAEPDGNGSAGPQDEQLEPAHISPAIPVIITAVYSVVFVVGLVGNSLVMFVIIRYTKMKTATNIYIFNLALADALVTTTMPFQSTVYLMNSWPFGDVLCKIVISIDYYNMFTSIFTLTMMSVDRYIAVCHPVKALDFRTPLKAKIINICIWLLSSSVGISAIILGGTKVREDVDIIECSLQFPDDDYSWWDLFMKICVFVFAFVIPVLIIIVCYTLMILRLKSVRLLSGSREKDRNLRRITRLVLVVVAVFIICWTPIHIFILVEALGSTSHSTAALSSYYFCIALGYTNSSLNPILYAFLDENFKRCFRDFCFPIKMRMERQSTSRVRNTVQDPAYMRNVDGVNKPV

Mu-type opioid receptor [4] = target: Mu-type opioid receptor (Mus musculus, UniProt P42866); assay: Displacement of [3H]DAMGO from mu opioid receptor in mouse brain membranes without cerebellum; assay type: cell membranes, Membrane
Sequence of Mu-type opioid receptor (Mus musculus, UniProt P42866) (P42866 whole entry): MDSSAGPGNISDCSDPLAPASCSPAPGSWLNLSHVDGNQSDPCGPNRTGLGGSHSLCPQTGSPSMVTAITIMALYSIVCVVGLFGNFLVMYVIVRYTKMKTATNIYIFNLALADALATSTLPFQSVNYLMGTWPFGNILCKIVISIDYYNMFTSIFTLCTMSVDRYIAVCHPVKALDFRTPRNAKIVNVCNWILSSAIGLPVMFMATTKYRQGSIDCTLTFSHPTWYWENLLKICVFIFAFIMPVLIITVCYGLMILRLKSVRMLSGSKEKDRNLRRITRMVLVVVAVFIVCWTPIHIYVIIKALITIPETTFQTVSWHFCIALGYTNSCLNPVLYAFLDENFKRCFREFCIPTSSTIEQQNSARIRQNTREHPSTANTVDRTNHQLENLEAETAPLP

[5] = target: T1, Kappa-type opioid receptor (Homo sapiens, UniProt P41145); assay: Agonist activity at human kappa opioid receptor expressed in CHO cells by [35S]GTPgammaS binding assay relative to U-69593; assay type: functional, cell-based
T1 sequence (P41145 whole entry): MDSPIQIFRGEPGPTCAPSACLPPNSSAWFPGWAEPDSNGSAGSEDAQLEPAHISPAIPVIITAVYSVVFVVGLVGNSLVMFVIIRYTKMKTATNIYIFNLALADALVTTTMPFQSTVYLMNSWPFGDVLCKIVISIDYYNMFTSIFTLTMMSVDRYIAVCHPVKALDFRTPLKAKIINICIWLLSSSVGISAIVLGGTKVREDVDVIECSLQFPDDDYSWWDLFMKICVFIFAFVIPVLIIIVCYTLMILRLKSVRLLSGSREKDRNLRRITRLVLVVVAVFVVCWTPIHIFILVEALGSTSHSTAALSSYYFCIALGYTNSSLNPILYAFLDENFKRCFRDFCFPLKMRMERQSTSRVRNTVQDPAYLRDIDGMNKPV

[6] = target: T2, Delta-type opioid receptor (Homo sapiens, UniProt P41143); assay: Agonist activity at human delta opioid receptor expressed in CHO cells by [35S]GTPgammaS binding assay relative to SNC80; assay type: functional, cell-based
T2 sequence (P41143 whole entry): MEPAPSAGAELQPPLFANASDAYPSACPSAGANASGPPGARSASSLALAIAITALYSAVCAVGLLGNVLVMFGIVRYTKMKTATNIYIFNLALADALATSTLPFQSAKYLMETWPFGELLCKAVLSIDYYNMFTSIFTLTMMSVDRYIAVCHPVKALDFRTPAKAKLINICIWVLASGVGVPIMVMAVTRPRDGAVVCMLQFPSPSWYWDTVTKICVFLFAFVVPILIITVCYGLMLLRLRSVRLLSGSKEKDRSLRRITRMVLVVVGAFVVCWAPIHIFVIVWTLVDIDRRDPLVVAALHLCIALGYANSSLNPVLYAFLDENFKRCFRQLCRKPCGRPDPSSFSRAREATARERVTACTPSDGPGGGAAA

[7] = target: T1, Kappa-type opioid receptor; assay: Agonist activity at human kappa opioid receptor expressed in CHO cells by [35S]GTPgammaS binding assay; assay type: functional, cell-based
[8] = target: T2, Delta-type opioid receptor; assay: Agonist activity at human delta opioid receptor expressed in CHO cells by [35S]GTPgammaS binding assay; assay type: functional, cell-based
Mu-type opioid receptor [9] = target: T3, Mu-type opioid receptor (Homo sapiens, UniProt P35372); assay: Agonist activity at human mu opioid receptor expressed in CHO cells by [35S]GTPgammaS binding assay; assay type: functional, cell-based
T3 sequence (P35372 whole entry): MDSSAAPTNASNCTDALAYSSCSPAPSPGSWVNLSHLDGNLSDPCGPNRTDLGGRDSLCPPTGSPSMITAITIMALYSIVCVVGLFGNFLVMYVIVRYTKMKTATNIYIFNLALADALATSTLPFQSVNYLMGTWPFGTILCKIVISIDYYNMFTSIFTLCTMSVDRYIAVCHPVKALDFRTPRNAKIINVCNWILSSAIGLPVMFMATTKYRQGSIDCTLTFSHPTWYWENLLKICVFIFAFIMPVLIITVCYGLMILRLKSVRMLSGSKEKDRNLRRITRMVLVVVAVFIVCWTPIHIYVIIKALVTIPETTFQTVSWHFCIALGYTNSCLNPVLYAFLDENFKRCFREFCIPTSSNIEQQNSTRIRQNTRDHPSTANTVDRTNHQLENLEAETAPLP

Mu-type opioid receptor [10] = target: T3, Mu-type opioid receptor; assay: Agonist activity at human mu opioid receptor expressed in CHO cells by [35S]GTPgammaS binding assay relative to DAMGO; assay type: functional, cell-based

Sequence of Delta-type opioid receptor (Mus musculus, UniProt P32300) (P32300 whole entry): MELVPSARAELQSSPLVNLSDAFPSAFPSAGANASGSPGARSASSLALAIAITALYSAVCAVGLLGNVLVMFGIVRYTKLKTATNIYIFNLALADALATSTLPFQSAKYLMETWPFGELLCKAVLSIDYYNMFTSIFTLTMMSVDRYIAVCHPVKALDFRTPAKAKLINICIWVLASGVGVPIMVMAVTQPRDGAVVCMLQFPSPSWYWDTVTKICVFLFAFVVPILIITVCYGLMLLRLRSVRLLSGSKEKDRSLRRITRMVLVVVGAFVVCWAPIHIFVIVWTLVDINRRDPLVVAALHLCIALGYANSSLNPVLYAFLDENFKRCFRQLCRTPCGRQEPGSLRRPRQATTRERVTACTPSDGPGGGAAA

**Q.** With `O=C(C[C@@H]1N[C@@]23CC[C@]1(O)C1Oc4c(O)ccc5c4C12CCN(CC1CC1)C3C5)NCc1ccccc1` (some centres undefined) as the compound, how does the Ki [1] read?
**A.** 1.12 nM

**Q.** And the Ratio Ki [2]?
**A.** 1.16

**Q.** What about the Ki [3] of the same compound?
**A.** 0.11 nM

**Q.** And the Ki (Mu-type opioid receptor [4])?
**A.** 0.13 nM

**Q.** With `O=C(C[C@H]1N[C@@]23CC[C@]1(O)C1Oc4c(O)ccc5c4C12CCN(CC1CC1)C3C5)NCc1ccccc1` (some centres undefined) as the compound, how does the Ki [1] read?
**A.** 0.15 nM

**Q.** What about the Ratio Ki [2] of the same compound?
**A.** 1.42

**Q.** And the Ki [3]?
**A.** 0.037 nM

**Q.** What about the Ki (Mu-type opioid receptor [4]) of the same compound?
**A.** 0.052 nM

**Q.** Which Emax [5] does the source give for `O=C(NCc1ccccc1)C1=N[C@@]23CC[C@]1(O)C1Oc4c(O)ccc5c4C12CCN(CC1CC1)C3C5` (some centres undefined) here?
**A.** 91.2%

**Q.** What about the Emax [6] of the same compound?
**A.** 93.2%

**Q.** What about the EC50 [7] of the same compound?
**A.** 0.033 nM

**Q.** And the EC50 [8]?
**A.** 1.7 nM

**Q.** What about the Ki [1] of the same compound?
**A.** 0.61 nM

**Q.** And the Ratio Ki [2]?
**A.** 3.25

**Q.** And the EC50 (Mu-type opioid receptor [9])?
**A.** 0.4 nM

**Q.** What about the Ki [3] of the same compound?
**A.** 0.043 nM

**Q.** What about the Emax (Mu-type opioid receptor [10]) of the same compound?
**A.** 101%

**Q.** And the Ki (Mu-type opioid receptor [4])?
**A.** 0.14 nM

**Q.** With `Oc1ccc2c3c1OC1C34CCN(CC3CC3)C(C2)[C@]42CC[C@@]1(O)C=N2` (some centres undefined) as the compound, how does the Ki [1] read?
**A.** 6.12 nM

**Q.** And the Ratio Ki [2]?
**A.** 0.2

**Q.** And the Ki [3]?
**A.** 1.42 nM

**Q.** What about the Ki (Mu-type opioid receptor [4]) of the same compound?
**A.** 0.28 nM

**Q.** For `O=C(NCc1ccccc1)[C@@H]1N[C@@]23CC[C@]1(O)C1Oc4c(O)ccc5c4C12CCN(CC1CC1)C3C5` (some centres undefined), which Ki [1] is on record?
**A.** 0.45 nM

**Q.** What about the Ratio Ki [2] of the same compound?
**A.** 0.83

**Q.** What about the Ki [3] of the same compound?
**A.** 0.18 nM

**Q.** What about the Ki (Mu-type opioid receptor [4]) of the same compound?
**A.** 0.15 nM

**Q.** With `O=C(Nc1ccccc1)C1=N[C@@]23CC[C@]1(O)C1Oc4c(O)ccc5c4C12CCN(CC1CC1)C3C5` (some centres undefined) as the compound, how does the Ki [1] read?
**A.** 0.32 nM

**Q.** And the Ratio Ki [2]?
**A.** 0.95

**Q.** What about the Ki [3] of the same compound?
**A.** 0.38 nM

**Q.** And the Ki (Mu-type opioid receptor [4])?
**A.** 0.36 nM

**Q.** With `O=C1C[C@@H]2N(CN1Cc1ccccc1)[C@@]13CC[C@]2(O)C2Oc4c(O)ccc5c4C21CCN(CC1CC1)C3C5` (some centres undefined) as the compound, how does the Ki [1] read?
**A.** 3.83 nM

**Q.** And the Ratio Ki [2]?
**A.** 0.09

**Q.** What about the Ki [3] of the same compound?
**A.** 7.74 nM

**Q.** And the Ki (Mu-type opioid receptor [4])?
**A.** 0.68 nM

**Q.** What does the source list for `CN(C(=O)/C=C/c1ccoc1)[C@@H]1CC[C@@]2(O)[C@H]3Cc4ccc(O)c5c4[C@@]2(CCN3CC2CC2)[C@H]1O5` [NALFURAFINE]?
**A.** Emax [6]: 55.2%; EC50 (Mu-type opioid receptor [9]): 0.72 nM; Emax (Mu-type opioid receptor [10]): 70.4%

**Q.** For `O=C1C[C@H]2N(CN1Cc1ccccc1)[C@@]13CC[C@]2(O)C2Oc4c(O)ccc5c4C21CCN(CC1CC1)C3C5` (some centres undefined), which Ki [1] is on record?
**A.** 4.93 nM

**Q.** And the Ratio Ki [2]?
**A.** 0.28

**Q.** And the Ki [3]?
**A.** 1.54 nM

**Q.** And the Ki (Mu-type opioid receptor [4])?
**A.** 0.43 nM

**Q.** For `O=C(NCCc1ccccc1)C1=N[C@@]23CC[C@]1(O)C1Oc4c(O)ccc5c4C12CCN(CC1CC1)C3C5` (some centres undefined), which Emax [5] is on record?
**A.** 76.3%

**Q.** What about the EC50 [7] of the same compound?
**A.** 0.18 nM

**Q.** And the EC50 [8]?
**A.** > 1000 nM

**Q.** And the Ki [1]?
**A.** 0.86 nM

**Q.** What about the Ratio Ki [2] of the same compound?
**A.** 3.5

**Q.** What about the EC50 (Mu-type opioid receptor [9]) of the same compound?
**A.** 1.09 nM

**Q.** And the Ki [3]?
**A.** 0.12 nM

**Q.** What about the Emax (Mu-type opioid receptor [10]) of the same compound?
**A.** 44.9%

**Q.** And the Ki (Mu-type opioid receptor [4])?
**A.** 0.4 nM

**Q.** Which Ki [1] does the source give for `O=C(NCc1ccccc1)[C@H]1N[C@@]23CC[C@]1(O)C1Oc4c(O)ccc5c4C12CCN(CC1CC1)C3C5` (some centres undefined) here?
**A.** 0.81 nM

**Q.** And the Ratio Ki [2]?
**A.** 1.04

**Q.** What about the Ki [3] of the same compound?
**A.** 0.23 nM

**Q.** And the Ki (Mu-type opioid receptor [4])?
**A.** 0.24 nM
